Results reported in US9212196B2, “Hypophosphorous acid derivatives having antihyperalgic activity and biological applications thereof” (UNIVERSITE PARIS DESCARTES, priority 2011, dated 2015).

System: CCI neuropathic pain model
Experiment: Paw pressure test in CCI neuropathic pain model in rats
Format: in vivo, rat
Protocol: After the induction period of the neuropathy or inflammation, various amounts of derivative 2 dissolved in serum have been injected in rats, (from 0.5 to 15 μg/rat, i.t. from 1 to 30 mg/kg, i.p.) on time-course of vocalization threshold to paw pressure. The results obtained on healthy animals are given on FIG. 1. They are expressed by the time course curves of means+/-SEM of vocalization threshold in grams (n=6-8 rats per group) (A) or by the area under the curve (B). Morphine (10 μg/rat, i.t.) is used as a positive control. […] FIG. 4 illustrates the effect of intrathecal administration of derivative 2 on the vocalization threshold to paw pressure in the CCI neuropathic pain model (effect of derivative 2 (1, 5, 10 μg/rat, i.t.) on time-course of vocalization threshold to paw pressure). Gabapentin (100 mg/kg, p.o.) is used as a positive control. […] The effect of intrathecal administration of derivative 2 (10 μg/rat, i.t.) on the vocalization threshold to paw pressure in the CCI neuropathic pain model after mGluR4 or mismatch ODN treatment is illustrated by FIG. 4. […] The animals were submitted to the paw pressure test previously described by Randall and Selitto (1957). Nociceptive thresholds, expressed in grams (g), were measured with a Ugo Basile analgesimeter (Apelex, tip diameter of the probe: 1 mm, weight: 30 g) by applying an increasing pressure to the right hind paw of rats until a squeak (vocalization threshold) was obtained (cut-off was 750 g except carrageenan treated animals for which the cut-off was 500 g). The treatments were done after the measurement of two consecutive stable vocalization threshold values and their effects were assessed 15, 30, 45, 60, 90, and 120 min after. Unilateral peripheral mononeuropathy was induced according to the method described by Bennett and Xie (1988). Briefly, after determining vocalization thresholds, rats were anesthetized with sodium pentobarbital (50 mg/kg i.p.) and four chromic gut (5-0) ligatures were tied loosely (with about 1-mm spacing) around the right common sciatic nerve. The nerve was constricted to a barely discernible degree, so that circulation through the epineurial vasculature was not interrupted. Only animals presenting a decrease ≧15% of the presurgery value of vocalization threshold were selected, i.e., 90% of ligated animals (presurgery value: 379±7 g, pre-drug value: 188±7 g). Intrathecal injections were performed, under isoflurane anesthesia (4% induction, 2% maintenance), as previously described (Mestre et al., 1994). Briefly, the anesthetized rat was held in one hand by the pelvic girdle and a 25-gauge X1-inch needle connected to a 25 μL Hamilton syringe was inserted into the subarachnoidal space between lumbar vertebrae L5 and L6, until a tail flick was elicited. The syringe was held in position for few seconds after the injection of a volume of 10 μL/rat. AS ODN was designed based on rat mGluR4 sequence in regions lacking known splice variants. […]. One ODN with scramble arrangement in the base composition compared to the 18-mer specific as was used as control for sequence-independent effects of ODN treatments. […] Pain scores were determined using standard methods in strict conformity with ethical standards (Zimmermann M., 1983) before ODN treatments and then on day 4 in the afternoon. […]

With `N[C@@H](CCP(=O)(O)C(O)c1ccc(OCC(=O)O)cc1)C(=O)O` (stereo partly drawn) [Derivative 2, [((3S)-3-Amino-3-carboxy)propyl][(4-(carboxymethoxy)phenyl)hydroxymethyl]phosphinic Acid] the “antihyperalgesic effect on vocalization threshold to paw pressure” value (CCI neuropathic pain, rats, 1-10 μg/rat i.t.) was “abolishes the excess of mechanical pain”, the “antihyperalgesic effect after antisense oligonucleotides against mGlu4” value (CCI neuropathic rats, 10 μg/rat i.t., versus saline or mismatch ODN) was “significantly reduced” and the “mechanical antihyperalgesia after knockdown of spinal mGlu4 expression by antisense oligonucleotides” value (FIG. 7 legend, model not named) was “reduces mechanical antihyperalgesia”. The “antihyperalgesic effect compared to gabapentine” value (neuropathy model, gabapentine 100 mg/kg per os as control) was “significantly higher than the one of gabapentine”.
